# Measured values published in patent US11465989B2, “Guanidine compounds and use thereof” (IMMUNOMET THERAPEUTICS INC., priority 2014, dated 2022).
# Tests used:
# SK-MEL-239 tumor cells [1] = test: In vivo xenograft model using SK-MEL-239 cell; parameters: species or system mice
# Method: The compounds of the present invention were evaluated in vivo using xenograft human cancer model in mice. The compounds of invention were administrated orally or interperitoneal injection. Tumor cell lines were cultured in vitro as monolayer culture. Using female BALB/c nude mice with immune system compromised, each mouse was inoculated subcutaneously at the right flank with tumor cells for tumor development. The treatment was started when the tumor size reaches approximately 100 mm^3
# The SK-MEL-239 tumor cell line was maintained in vitro as monolayer in RPMII 640 medium supplemented with 10% heat inactivated fetal bovine serum, 100 U/ml penicillin and 100 μg/ml streptomycin, and L-glutamine (2 mM) at 37° C. in an atmosphere of 5% CO2 in air. The tumor cells were routinely subcultured twice weekly with 0.5% trypsin-EDTA treatment. The cells growing in an exponential growth phase were harvested and counted for tumor cell inoculation.
# Female BALB/c nude mice aged 6-8 weeks and weighing approximately 18-22 g were purchased from Vital River. Each mouse was inoculated subcutaneously at the right flank with SK-MEL-239 tumor cells (1×10^7) in 0.1 ml of PBS for tumor development. The treatment was started, when the tumor size reaches approximately 100 mm^3. 100 mg/kg of Phenformin and 15 mg/kg of Vemurafenib were administered via oral gavage twice daily and 100 mg/kg HLPOI (HL176001001) was administered once daily for 21 days. Tumor volumes were measured twice a week in two dimensions using a caliper, and the volume was expressed in mm^3 using the formula: V=0.5×a×b^2, where a and b were the long and short diameters of the tumor, respectively. The T/C value (in percentage) was an indication of antitumor effect. T and C were the mean volumes of the treated and control groups, respectively.
# SK-MEL-239 tumor cells [2] = test: In vivo xenograft model using SK-MEL-239 cell; parameters: species or system mice; conditions: Dosing 150/100 mg/kg, oral, twice daily
# A549 cells = test: In vitro combination study with Dasatinib on A549 cell; type: cell-based; conditions: 0.05 μM of Dasatinib and 8 μM of Phenformin
# Method: (§1) A549, H1975 (CRL5908, ATCC) or U937 cell (CRL1593.2™, ATCC) lines were cultured in RPMI 1640 media (Lifetechnologies, CA) with supplement of 10% FBS and antibiotic-antimycotic (Lifetechnologies, CA). Dasatinib (Combi-Blocks, San Diego, Calif.) is Bcr-Abl-tyrosine kinase inhibitor and Src family tyrosine kinase inhibitor approved for CML treatment. GDC094 (Selleckchem, Houston, Tex.) is a pan-PI3K inhibitor and effective in various cancer cells. H1975 or A549 cells were dissociated from culture plate using 0.5% trypsin-EDTA (Lifetechnologies, CA) and were suspended. U937 cells were spun down using centrifugation. […]
# (§2) Among four concentrations of the compounds of present invention, the highest concentration was set to IC80 and the lowest concentration was approximately IC30. […] 100 μl of DMSO was added after removing MTT solution from each well, and were read by VICTOR X3 Multilabel Counter at the wavelength of 550 nm.
# (§3) For the analysis of U937 cell viability, 20 μl of Celltiter96® AQueous one solution (MTS, Promega, Madison, Wis.) were added to each well, and plates were incubated at 37° C. and 5% CO2. After 2 hours later, plates read by VICTOR X3 Multilabel Counter at the wavelength of 490 nm. The combination index (CI value) was calculated using Calcusyn (Biosoft, UK).
# H1975 cell = test: In vitro combination study with Dasatinib on H1975 cell; type: cell-based; conditions: 0.2 μM of Dasatinib, 8 μM or 40 μM of Example 1, 40 μM or 200 μM of Example 104
# Method: as §1, §2, §3
# [3] = Dosing 15 mg/kg, oral, twice daily, Day 28
compound,measurement,setting,value
"[H]/N=C(/N)N/C(=N/[H])NCCc1ccccc1 [Phenformin, phenformin, reference compound]",tumor volume compared to the control group,"SK-MEL-239 tumor cells [1]; 100 mg/kg, Phenformin twice daily, Example 1 once daily",significant reduction of tumor volume
same,tumor volume compared to the single administration of Vemurafenib,SK-MEL-239 tumor cells [1]; in combination with 15 mg/kg of Vemurafenib,did not show the significant reduction of tumor volume
same,"T/C (Day 28, %)",SK-MEL-239 tumor cells [2],52.2%
same,"Tumor Volume (Day 28, mm^3, a)",SK-MEL-239 tumor cells [2],"1,562 ± 166 mm^3"
same,synergic effect in combination with Dasatinib,A549 cells,did not show the synergic effect
"Cl.N=C(N)NC(=N)NCCc1ccc(F)cc1 [Example 104, N-1-(4-fluoro)phenethylbiguanide hydrochloride]",combination therapy effect with Dasatinib,H1975 cell,low combination therapy effect
"CCCS(=O)(=O)Nc1ccc(F)c(C(=O)c2c[nH]c3ncc(-c4ccc(Cl)cc4)cc23)c1F [Vemurafenib, reference compound]","T/C (Day 28, %)",SK-MEL-239 tumor cells [1]; [3],38.0%
same,"Tumor Volume (Day 28, mm^3, a)",SK-MEL-239 tumor cells [1]; [3],"1,144 ± 101 mm^3"
